Patent US20220132849A1, “USE OF SPIROPIDION” (SYNGENTA CROP PROTECTION AG, priority 2019, published 2022)

Tests used:
[1] = Uptake from soil into tomato plants after drench, LC/MS of roots, stem and leaves; design: species or system Solanum lycopersicum Ailsa Craig; conditions: in vivo
Procedure: In a greenhouse at 20° C., tomato plants (Solanum lycopersicum Ailsa Craig at BBCH 12 growth stage) grown in 50% Jip 3 and 50% peat in 5″ pots were drenched (in five replicates) with 50 mL of a 100 ppm aqueous active ingredient solution (5 mg of active ingredient per plant) prepared from dilution of (i) a spiropidion SC300 formulation (SC=suspension concentrate), and (ii) commercially-available spirotetramat as a SC240 formulation. At four intervals post-treatment (1, 7, 14 and 21 days), tomato plants subjected to treatments (i) and (ii) were sectioned into roots, stem and separate leaf segments, washed and extracted with the quantification by liquid chromatography/mass spectrometry (LC/MS) of amounts (μg) of spiropidion and its dione (cide), and spirotetramat and its dione (cide).

selected pests = experiment: Soil drench on vegetable plants, overall comparison over crops and pests; type: in vivo; conditions: soil treatment at the same dose rate (10 mg ai/plant); range of vegetable crops and pests
Procedure: (§1) To the soil at the base of vegetable plants naturally infested with a population of a selected pest (refer Table 2) was applied by drench 30 to 100 mL per plant of an active ingredient (ai) solution at a dose rate of 10 mg ai/plant, wherein the solutions consisted of spiropidion or spirotetramat as active ingredient. Soil application was made 3 to 7 days after transplant in a nursery tray. Spiropidion was applied as a dilution of an SC300 formulation in water. Spirotetramat was applied as a dilution of an SC240 formulation in water. Mortality rates were recorded as a percentage against an untreated check plant and were evaluated at between 5 and 40 days after soil application.

Bemisia tabaci = experiment: Soil drench on naturally infested vegetable plants, mortality; type: in vivo; conditions: soil drench 10 mg ai/plant, 5 to 40 days after application
Procedure: as §1

Thrips sp. = experiment: as above; type: in vivo; conditions: soil drench 10 mg ai/plant, 5 to 40 days after application
Procedure: as §1

Tetranychus urticae = experiment: as above; type: in vivo; conditions: soil drench 10 mg ai/plant, 5 to 40 days after application
Procedure: as §1

Aphis gossypii = experiment: as above; type: in vivo; conditions: soil drench 10 mg ai/plant, 5 to 40 days after application
Procedure: as §1

[2] = test system: coffee leaf miner (Perileucoptera coffeella); experiment: Soil drench on naturally infested coffee plants, mortality; type: in vivo; conditions: 30 to 95 days after application, against untreated check plant
Procedure: To the soil surface at the base of separate coffee plants naturally infested with a population of coffee leaf miner (Perileucoptera coffeella) was applied as a drench 50 to 100 mL of an active ingredient (ai) solution at a dose rate of 390 mg ai/plant, wherein the active ingredient was spiropidion, or thiamethoxam as a commercial standard. Spiropidion was applied as a dilution of an SC300 formulation in water. Thiamethoxam was applied as a dilution of a WG25 formulation in water. Mortality rates were recorded as a pest control percentage against an untreated check plant and were evaluated at between 30 and 95 days after soil application of the respective active ingredients.

## CCOC(=O)OC1=C(c2c(C)cc(Cl)cc2C)C(=O)N(C)C12CCN(OC)CC2 [spiropidion]
[1]
  rate of uptake from the soil compared to spirotetramat: much greater rate of uptake from the soil
Selected pests
  mortality rates compared to spirotetramat: consistently higher

## CCOC(=O)OC1=C(c2cc(C)ccc2C)C(=O)N[C@]12CC[C@@H](OC)CC2 [spirotetramat]
Bemisia tabaci; Test no. 3, Eggplant
  % Mortality rate against untreated plant: 68%
Bemisia tabaci; Test no. 4, Eggplant
  % Mortality rate against untreated plant: 93%
Bemisia tabaci; Test no. 5, Eggplant
  % Mortality rate against untreated plant: 76%
Bemisia tabaci; Test no. 6, Eggplant
  % Mortality rate against untreated plant: 91%
Bemisia tabaci; Test no. 7, Eggplant
  % Mortality rate against untreated plant: 96%
Bemisia tabaci; Test no. 14, Melon
  % Mortality rate against untreated plant: 64%
Bemisia tabaci; Test no. 16, Squash
  % Mortality rate against untreated plant: 83%
Bemisia tabaci; Test no. 17, Squash
  % Mortality rate against untreated plant: 42%
Bemisia tabaci; Test no. 20, Tomato
  % Mortality rate against untreated plant: 84%
Thrips sp.; Test no. 9, Cucumber
  % Mortality rate against untreated plant: 90%
Thrips sp.; Test no. 11, Melon
  % Mortality rate against untreated plant: 70%
Thrips sp.; Test no. 12, Melon
  % Mortality rate against untreated plant: 90%
Thrips sp.; Test no. 13, Melon
  % Mortality rate against untreated plant: 64%
Thrips sp.; Test no. 22, Hot pepper
  % Mortality rate against untreated plant: 46%
Thrips sp.; Test no. 23, Sweet pepper
  % Mortality rate against untreated plant: 53%
Tetranychus urticae; Test no. 1, Eggplant
  % Mortality rate against untreated plant: 62%
Tetranychus urticae; Test no. 2, Eggplant
  % Mortality rate against untreated plant: 85%
Tetranychus urticae; Test no. 21, Hot pepper
  % Mortality rate against untreated plant: 45%
Aphis gossypii; Test no. 8, Eggplant
  % Mortality rate against untreated plant: 71%
Aphis gossypii; Test no. 10, Cucumber
  % Mortality rate against untreated plant: 87%
Aphis gossypii; Test no. 15, Melon
  % Mortality rate against untreated plant: 63%
Aphis gossypii; Test no. 18, Squash
  % Mortality rate against untreated plant: 93%
Aphis gossypii; Test no. 19, Squash
  % Mortality rate against untreated plant: 84%

## CN1COCN(Cc2cnc(Cl)s2)/C1=N\[N+](=O)[O-] [thiamethoxam]
[2]; Test no. 1, soil drench 390 mg ai/plant
  % Mortality rate: 39%
[2]; Test no. 2, soil drench 390 mg ai/plant
  % Mortality rate: 68%
[2]; Test no. 3, soil drench 390 mg ai/plant
  % Mortality rate: 81%
[2]; Test no. 4, soil drench 390 mg ai/plant
  % Mortality rate: 73%
[2]; Test no. 5, soil drench 390 mg ai/plant
  % Mortality rate: 38%
